According to patent US20180037595A1, “BENZOXABOROLE COMPOUNDS AND USES THEREOF” (GLAXOSMITHKLINE INTELLECTUAL PROPERTY (NO.2) LIMITED, priority 2015, published 2018):
Values after ≈ are worked out from the molar mass of the structure shown. Where a name gives a salt, the structure may show the parent alone. Read-outs that look alike come from different tables or passages of the source.

Columns and labels:
[1] = test system: M. tuberculosis standard strain Mtb H37Rv; experiment: MIC determination against mycobacteria (resazurin microtiter assay); format: cell-based, Mycobacterium tuberculosis; details: for Selectivity Index (A/B): HepG2 cell 48 h Tox50 (A) / Mtb H37Rv MIC (B); for MIC: Mycobacterium tuberculosis, H37RV, read-out: Mtb H37Rv MIC (B)
E. coli K12 = experiment: General antimicrobial activity assay (CLSI broth microdilution); format: cell-based; details: Escherichia coli, K12, read-out: MIC: E. coli K12
Description: (§1) Whole-cell antimicrobial activity was determined by broth microdilution using the Clinical and Laboratory Standards Institute (CLSI) recommended procedure, Document M7-A7, “Methods for Dilution Susceptibility Tests for Bacteria that Grow Aerobically”.

E. coli K12 tolC::Tn10 = experiment: as above; format: cell-based; details: Escherichia coli, read-out: MIC: E. coli K12 tolC::Tn10
Description: as §1

P. aeruginosa PA01 = experiment: as above; format: cell-based; details: Pseudomonas aeruginosa, PA01, read-out: MIC: P. aeruginosa PA01
Description: as §1

A. baumannii ATCC 17978 = experiment: as above; format: cell-based; details: Acinetobacter baumannii, ATCC17978, read-out: MIC: A. baumannii ATCC 17978
Description: as §1

HepG2 cells = experiment: HepG2 cytotoxicity assay (resazurin); format: cell-based
Mtb LeuRS = Mtb LeuRS (Mycobacterium tuberculosis, UniProt P9WFV1); experiment: LeuRS aminoacylation assay, IC50 determination; format: biochemical, M. tuberculosis; details: read-out: Mtb LeuRS IC50
Mtb LeuRS, sequence (P9WFV1 whole entry): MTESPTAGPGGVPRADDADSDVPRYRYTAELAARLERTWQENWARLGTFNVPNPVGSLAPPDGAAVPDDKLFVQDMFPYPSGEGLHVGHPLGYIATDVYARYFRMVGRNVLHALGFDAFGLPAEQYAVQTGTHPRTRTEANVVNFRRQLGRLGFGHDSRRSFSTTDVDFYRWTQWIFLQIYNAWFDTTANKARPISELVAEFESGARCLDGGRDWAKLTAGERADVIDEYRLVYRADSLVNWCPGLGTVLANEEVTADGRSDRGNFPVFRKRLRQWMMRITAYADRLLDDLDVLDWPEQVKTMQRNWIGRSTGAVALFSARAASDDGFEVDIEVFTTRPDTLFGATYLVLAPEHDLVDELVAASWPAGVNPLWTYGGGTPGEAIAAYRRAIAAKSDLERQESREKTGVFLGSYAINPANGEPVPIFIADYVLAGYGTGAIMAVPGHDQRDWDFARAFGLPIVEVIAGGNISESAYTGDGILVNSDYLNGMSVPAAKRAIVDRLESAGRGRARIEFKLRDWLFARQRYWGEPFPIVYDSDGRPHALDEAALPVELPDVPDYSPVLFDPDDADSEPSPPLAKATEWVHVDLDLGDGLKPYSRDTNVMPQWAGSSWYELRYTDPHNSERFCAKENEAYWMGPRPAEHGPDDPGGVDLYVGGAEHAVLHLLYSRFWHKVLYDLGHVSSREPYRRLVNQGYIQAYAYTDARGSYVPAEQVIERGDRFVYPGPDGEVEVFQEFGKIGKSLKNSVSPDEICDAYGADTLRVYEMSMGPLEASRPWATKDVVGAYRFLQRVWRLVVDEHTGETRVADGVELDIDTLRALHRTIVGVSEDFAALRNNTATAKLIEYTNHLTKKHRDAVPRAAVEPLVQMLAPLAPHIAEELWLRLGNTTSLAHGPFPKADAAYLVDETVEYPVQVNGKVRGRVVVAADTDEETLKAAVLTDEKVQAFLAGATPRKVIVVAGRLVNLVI
Description: For biochemical analyses an N-terminal six histidine-tagged LeuRS was over-expressed in Escherichia coli which were E. coli codon-optimised (GenScript, Piscataway N.J., USA), from human mitochondria and cytoplasm, and M. tuberculosis. N-terminal six histidine-tagged LeuRS proteins were over-expressed and purified according to Novagen (Madison, Wis., USA) using an E. coli BL21(DE3) T7 RNA polymerase over-expression strain.
Experiments were performed in 96-well microtiter plates, using 80 μL reaction mixtures containing 50 mM HEPES-KOH (pH 8.0), 30 mM MgCl2 30 mM KCl, 13 μM L-[^14C]leucine (306 mCi/mmol, Perkin-Elmer), 15 uM total E. coli tRNA (Roche, Switzerland), 0.02% (w/v) BSA, 1 mM DTT, 0.2 μM LeuRS and 4 mM ATP at 30° C. Reactions were started by the addition of 4 mM ATP. After 7 minutes, reactions were quenched and tRNA was precipitated by the addition of 50 μL of 10% (w/v) TCA and transferred to 96-well nitrocellulose membrane filter plates (Millipore Multiscreen HTS, MSHAN4B50). Each well was then washed three times with 100 μL of 5% TCA. Filter plates were then dried under a heat lamp and the precipitated L-[^14C]leucine tRNALeu were quantified by liquid scintillation counting using a Wallac MicroBeta Trilux model 1450 liquid scintillation counter (PerkinElmer, Waltham, Mass., USA). The only difference was with the human cytoplasmic LeuRS when we used tRNA isolated from Brewer's Yeast (Roche Diagnostics GmbH).
Reactions were initiated by the addition of 4 mM ATP. Reactions were stopped after 7 minutes then precipitated and counted to quantify radioactivity. IC50 values were determined using the Graphpad Prism software package (Graphpad Software Inc. (La Jolla, Calif., USA).

Human cyto LeuRS = Human cyto LeuRS (Homo sapiens, UniProt Q9P2J5); experiment: LeuRS aminoacylation assay, IC50 determination; format: biochemical
Human cyto LeuRS, sequence (Q9P2J5 whole entry): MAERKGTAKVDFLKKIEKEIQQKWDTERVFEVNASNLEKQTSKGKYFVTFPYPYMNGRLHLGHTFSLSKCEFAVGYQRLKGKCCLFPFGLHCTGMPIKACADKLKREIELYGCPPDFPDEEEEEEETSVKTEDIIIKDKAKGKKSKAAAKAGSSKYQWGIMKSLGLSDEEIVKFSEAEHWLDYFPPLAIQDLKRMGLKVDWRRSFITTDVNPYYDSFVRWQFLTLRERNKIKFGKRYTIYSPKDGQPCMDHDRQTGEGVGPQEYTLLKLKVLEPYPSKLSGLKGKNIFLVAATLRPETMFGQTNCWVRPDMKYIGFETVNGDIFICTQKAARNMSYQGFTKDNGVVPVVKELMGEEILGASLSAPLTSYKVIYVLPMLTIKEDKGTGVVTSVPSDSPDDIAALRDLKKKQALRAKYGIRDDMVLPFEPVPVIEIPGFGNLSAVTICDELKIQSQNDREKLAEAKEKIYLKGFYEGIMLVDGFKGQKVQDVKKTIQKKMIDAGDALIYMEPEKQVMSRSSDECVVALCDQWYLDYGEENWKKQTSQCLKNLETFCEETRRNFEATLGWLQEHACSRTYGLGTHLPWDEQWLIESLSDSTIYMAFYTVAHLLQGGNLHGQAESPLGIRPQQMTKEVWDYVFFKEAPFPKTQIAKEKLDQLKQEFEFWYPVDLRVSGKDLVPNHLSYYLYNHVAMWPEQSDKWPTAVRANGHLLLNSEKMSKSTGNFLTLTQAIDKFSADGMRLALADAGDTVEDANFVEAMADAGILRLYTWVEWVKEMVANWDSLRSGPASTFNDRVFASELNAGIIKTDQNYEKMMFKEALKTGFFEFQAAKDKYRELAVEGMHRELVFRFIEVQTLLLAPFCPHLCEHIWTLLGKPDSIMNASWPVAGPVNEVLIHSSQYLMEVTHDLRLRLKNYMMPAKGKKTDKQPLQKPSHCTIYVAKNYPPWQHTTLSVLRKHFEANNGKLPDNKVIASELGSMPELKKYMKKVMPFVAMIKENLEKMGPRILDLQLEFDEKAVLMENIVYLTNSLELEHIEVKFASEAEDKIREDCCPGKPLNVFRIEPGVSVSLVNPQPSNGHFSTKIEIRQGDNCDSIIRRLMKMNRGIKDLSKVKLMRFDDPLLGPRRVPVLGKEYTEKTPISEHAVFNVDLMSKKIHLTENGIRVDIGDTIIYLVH

[2] = Homo sapiens, HepG2, 48 h, read-out: HepG2 cell 48 h Tox50 (A)

## CC1(C)COc2cccc3c2B(OC3CN)O1 (centres unmarked) [Example C12-H, reference compound]
[1]
  Selectivity Index (A/B): >4.9
  MIC: > 5 µM
E. coli K12
  MIC: 4 µg/mL (≈ 17.2 µM)
E. coli K12 tolC::Tn10
  MIC: 2 µg/mL (≈ 8.58 µM)
P. aeruginosa PA01
  MIC: 16 µg/mL (≈ 68.6 µM)
A. baumannii ATCC 17978
  MIC: 4 µg/mL (≈ 17.2 µM)
HepG2 cells; [2]
  IC50: 24.5 µM
Mtb LeuRS
  IC50: 1.33 µM

## Cl.NC[C@H]1OB2O[C@H](CO)COc3ccc(F)c1c32 [Example 13, ((2S,8R)-2-(aminomethyl)-3-fluoro-7,8-dihydro-2H-1,6,9-trioxa-9a-borabenzo[cd]azulen-8-yl)methanol hydrochloride]
[1]
  Selectivity Index (A/B): >10
  MIC: 0.55 µM
HepG2 cells; [2]
  IC50: > 50 µM
Mtb LeuRS
  IC50: 0.48 µM

## NC[C@H]1OB2OCCOc3c(Cl)cc(Cl)c1c32 [Example C14-Cl2, reference compound]
[1]
  Selectivity Index (A/B): >10
  MIC: > 5 µM
HepG2 cells; [2]
  IC50: > 50 µM
Mtb LeuRS
  IC50: 4.67 µM

## Cl.NCC1OB2OCCOc3ccc(Br)c1c32 (racemic) [Example 1, 3-bromo-7,8-dihydro-2H-1,6,9-trioxa-9a-borabenzo[cd]azulen-2-yl)methanamine hydrochloride]
[1]
  MIC: 0.18 µM
HepG2 cells; [2]
  IC50: > 50 µM
Mtb LeuRS
  IC50: 0.154 µM

## CC1(C)COc2c(Cl)ccc3c2B(OC3CN)O1 (centres unmarked) [Example C8-Cl, reference compound]
[1]
  Selectivity Index (A/B): 10
  MIC: > 5 µM
HepG2 cells; [2]
  IC50: > 50 µM
Mtb LeuRS
  IC50: 6.05 µM

## Cl.NCC1OB2OCCOc3ccc(Br)c1c32 (racemic) [Example 1]
[1]; listed as EXAMPLE 1 G1-Br, hydrochloride
  Selectivity Index (A/B): >277
[1]; listed as Example 1 G1-Br, hydrochloride
  Selectivity Index (A/B): > 277
E. coli K12
  MIC: > 64 µg/mL
E. coli K12 tolC::Tn10
  MIC: > 64 µg/mL
P. aeruginosa PA01
  MIC: > 64 µg/mL
A. baumannii ATCC 17978
  MIC: > 64 µg/mL

## CC1COc2ccc(Cl)c3c2B(O1)OC3CN.Cl (centres unmarked) [Example 7, (3-chloro-8-methyl-7,8-dihydro-2H-1,6,9-trioxa-9a-borabenzo[cd]azulen-2-yl)methanamine hydrochloride]
[1]
  Selectivity Index (A/B): >250
  MIC: 0.2 µM
E. coli K12
  MIC: > 64 µg/mL
E. coli K12 tolC::Tn10
  MIC: > 64 µg/mL
P. aeruginosa PA01
  MIC: > 64 µg/mL
A. baumannii ATCC 17978
  MIC: > 64 µg/mL
HepG2 cells; [2]
  IC50: > 50 µM
Mtb LeuRS
  IC50: 1.08 µM
Human cyto LeuRS
  IC50: > 300 µM

## NC[C@H]1OB2OCCOc3ccc(I)c1c32 [Example 6, (S)-(3-iodo-7,8-dihydro-2H-1,6,9-trioxa-9a-borabenzo[cd]azulen-2-yl)methanamine hydrochloride]
[1]
  MIC: 0.3 µM
HepG2 cells; [2]
  IC50: 36.4 µM
Mtb LeuRS
  IC50: 0.33 µM

## CC1COc2cccc3c2B(O1)OC3CN (centres unmarked) [Example C11-H, reference compound]
[1]
  Selectivity Index (A/B): >32
E. coli K12
  MIC: 2 µg/mL (≈ 9.13 µM)
E. coli K12 tolC::Tn10
  MIC: 2 µg/mL (≈ 9.13 µM)
P. aeruginosa PA01
  MIC: 2 µg/mL (≈ 9.13 µM)
A. baumannii ATCC 17978
  MIC: 4 µg/mL (≈ 18.3 µM)
HepG2 cells; [2]
  IC50: > 50 µM
Mtb LeuRS
  IC50: 0.51 µM

## Cl.NCC1OB2OCCOc3ccc(F)c1c32 (centres unmarked) [Example 5]
E. coli K12
  MIC: 32 µg/mL
E. coli K12 tolC::Tn10
  MIC: 64 µg/mL
P. aeruginosa PA01
  MIC: 4 µg/mL
A. baumannii ATCC 17978
  MIC: > 64 µg/mL

## C[C@@]1(CO)COc2ccc(Br)c3c2B(OC3CN)O1 (stereo partly drawn) [Example 16, ((2S,8R, or 2R,8S)-2-(aminomethyl)-3-bromo-8-methyl-7,8-dihydro-2H-1,6,9-trioxa-9a-borabenzo[cd]azulen-8-yl)methanol]
[1]
  Selectivity Index (A/B): >40
  MIC: 1.25 µM (≈ 0.41 µg/mL)
HepG2 cells; [2]
  IC50: > 50 µM
Mtb LeuRS
  IC50: 2.69 µM

## NC[C@H]1OB2OCCOc3c(Cl)ccc1c32 [Example C13-Cl, reference compound]
[1]
  Selectivity Index (A/B): >10
HepG2 cells; [2]
  IC50: > 50 µM

## C[C@]1(CO)COc2ccc(Cl)c3c2B(OC3CN)O1 (stereo partly drawn) [Example 15, ((2S,8S, or 2R,8R)-2-(aminomethyl)-3-chloro-8-methyl-7,8-dihydro-2H-1,6,9-trioxa-9a-borabenzo[cd]azulen-8-yl)methanol]
[1]
  Selectivity Index (A/B): >50
  MIC: 0.93 µM (≈ 0.264 µg/mL)
HepG2 cells; [2]
  IC50: > 50 µM
Mtb LeuRS
  IC50: 3.13 µM

## C[C@]1(CO)COc2ccc(Br)c3c2B(O[C@@H]3CN)O1 [Example 17, ((2S,8S, or 2R,8R)-2-(aminomethyl)-3-bromo-8-methyl-7,8-dihydro-2H-1,6,9-trioxa-9a-borabenzo[cd]azulen-8-yl)methanol]
[1]
  Selectivity Index (A/B): >50
  MIC: 0.925 µM (≈ 0.303 µg/mL)
HepG2 cells; [2]
  IC50: > 50 µM
Mtb LeuRS
  IC50: 1.97 µM

## CC1(C)COB2OC(CN)c3c(Cl)ccc(c32)O1 (centres unmarked) [Example C9-Cl, reference compound]
[1]
  Selectivity Index (A/B): >10
[1]; listed as C9-CI
  Selectivity Index (A/B): 10
HepG2 cells; [2]
  IC50: > 50 µM
Mtb LeuRS
  IC50: 37.6 µM

## CC1COc2c(Cl)cc(Cl)c3c2B(O1)OC3CN (centres unmarked) [Example C7-Cl2, reference compound]
[1]
  Selectivity Index (A/B): >20
HepG2 cells; [2]
  IC50: > 50 µM
Mtb LeuRS
  IC50: 7.97 µM

## C[C@@]1(CO)COc2ccc(Cl)c3c2B(OC3CN)O1 (single isomer, unassigned) [Example 14, ((2S,8R or 2R,8S)-2-(aminomethyl)-3-chloro-8-methyl-7,8-dihydro-2H-1,6,9-trioxa-9a-borabenzo[cd]azulen-8-yl)methanol]
[1]
  Selectivity Index (A/B): >4
  MIC: 1.25 µM (≈ 0.354 µg/mL)
HepG2 cells; [2]
  IC50: > 50 µM
Mtb LeuRS
  IC50: 4.17 µM

## NCCOc1cccc2c1B(O)OC2 [Example C3-H, reference compound]
[1]
  Selectivity Index (A/B): >0.8
HepG2 cells; Homo sapiens, HepG2, 48 h; read-out: HepG2 cell 48 h Tox50 (A)
  IC50: > 50 µM
Mtb LeuRS
  IC50: 17.6 µM
Human cyto LeuRS
  IC50: 35.7 µM

## Cl.NCC1OB2OCCOc3ccc(Cl)c1c32 (racemic) [Example 3]
[1]; listed as EXAMPLE 3 G3-Br, hydrochloride
  Selectivity Index (A/B): >106
[1]; listed as Example 3 G3-CI, hydrochloride
  Selectivity Index (A/B): > 106
E. coli K12
  MIC: > 64 µg/mL
E. coli K12 tolC::Tn10
  MIC: > 64 µg/mL
P. aeruginosa PA01
  MIC: > 64 µg/mL
A. baumannii ATCC 17978
  MIC: > 64 µg/mL

## CC1(C)COB2OC(CN)c3cccc(c32)O1 (centres unmarked) [Example C10-H, reference compound]
[1]
  MIC: > 5 µM
HepG2 cells; [2]
  IC50: > 50 µM
Mtb LeuRS
  IC50: > 300 µM

## Cl.NCC1OB2OCCOc3ccc(F)c1c32 (centres unmarked) [Example 5, (3-fluoro-7,8-dihydro-2H-1,6,9-trioxa-9a-borabenzo[cd]azulen-2-yl)methanamine hydrochloride)]
[1]
  MIC: 0.6 µM
HepG2 cells; [2]
  IC50: 49.1 µM
Mtb LeuRS
  IC50: 0.46 µM

## c1cc2c3c(c1)OCCOB3OC2 [Example C1-H, reference compound]
Mtb LeuRS
  IC50: 12.2 µM
Human cyto LeuRS
  IC50: 101 µM

## Cl.NCC1OB2OCCOc3ccc(Cl)c1c32 (racemic) [Example 3, 3-chloro-7,8-dihydro-2H-1,6,9-trioxa-9a-borabenzo[cd]azulen-2-yl)methanamine hydrochloride]
[1]
  MIC: 0.47 µM
HepG2 cells; [2]
  IC50: > 50 µM
Mtb LeuRS
  IC50: 0.244 µM
